“Also recorded” adds a separate entry of the source.
What was measured:
dendritic cells (CD11c+) = test: Antigen-presenting cell recruitment in injected quadriceps muscle: dendritic cells (flow cytometry); assay type: in vivo, BALB/c mice; conditions: 50 μL i.m. into right quadriceps, versus vehicle-injected left quadriceps
Experimental: (§1) 15 BALB/c mice were randomly assigned into 5 groups (three mice per group), which were Paraffin oil@HACH group, Squalane@HACH group, Squalene@HACH group, Ocimene@HACH group, and Farnesene@HACH group.
(§2) 50 μL of the composition comprising Paraffin oil@HACH particles, composition comprising Squalane@HACH particles, composition comprising Squalene@HACH particles, composition comprising Ocimene@HACH particles, or composition comprising Farnesene@HACH particles (the test samples in this experiment) was injected intramuscularly into the right quadriceps of mice in the Paraffin oil@HACH group, Squalane@HACH group, Squalene@HACH group, Ocimene@HACH group, and Farnesene@HACH group, respectively; and 50 μL of sodium citrate buffer (pH=6.5) (the vehicle control in this experiment) was injected intramuscularly into the left quadriceps of mice in these groups to monitor the effect induced by the injection on each mouse.
(§3) The mice in each group were sacrificed at 5th day after injection.
(§4) The left quadriceps muscles and the right quadriceps muscles of each mouse were harvested respectively. The tendons were removed, and muscles were digested with 3 mL of phosphate buffered saline (PBS) containing 0.05% (w/v) type II collagenase, 10 μg/mL of DNase I, and 0.5% BSA at 37° C. for 40 min. The muscle digestion was quenched by the addition of excess medium; and then the cell suspension was collected by centrifugation at 1200 rpm for 5 min, resuspended in PBS, and filtered through a 70-μm nylon mesh (BD-Biosciences).
The degree of dendritic cell (CD11c^+) recruitment in each mouse was assessed according to the following formula (VI): […]
(§5) The experimental procedure was roughly the same as that described in Experiment 1-4. The only differences were the compositions administered to the mice.
(§6) Cholesterol group: 50 μL of the N-methyl-2-pyrrolidone (NMP) solution comprising cholesterol (0.25 mg/mL) (the test sample in this group) was injected intramuscularly into the right quadriceps of mice; and 50 μL of N-methyl-2-pyrrolidone solution (the vehicle control in this group) was injected intramuscularly into the left quadriceps of mice to monitor the effect induced by the injection on each mouse.
as §6, with “Squalene” for “Cholesterol”, “squalene (50 μL/mL)” for “cholesterol (0.25 mg/mL)”

macrophages (CD11b+) = test: Antigen-presenting cell recruitment in injected quadriceps muscle: macrophages (flow cytometry); assay type: in vivo, BALB/c mice; conditions: 50 μL i.m. into right quadriceps, versus vehicle-injected left quadriceps
Experimental: as §1, §2, §3, §4
The degree of macrophage cell (CD11b^+) recruitment in each mouse was assessed according to the following formula (VII): […]
as §5, §6
as §6, with “Squalene” for “Cholesterol”, “squalene (50 μL/mL)” for “cholesterol (0.25 mg/mL)”

4T1 cells = test: Anti-tumor activity in 4T1 breast cancer mouse model; assay type: in vivo, BALB/c mice; set-up: key to Survival Status on Day 53: Dead means that the mouse died because of the tumor; Dead * means that the mouse died from attack by other mice
Experimental: On Day 0, after the injection process as described above was completed, 0.05 mL of the phosphate buffered saline (PBS) comprising 4T1 cells (2×10^6 cells/mL; 4T1 cell is abreast cancer cell line) was injected subcutaneously into the abdominal mammary fat pad of the mice in each group, and the tumor volume and survival status of mice were initially monitored on this day (Day 0). Tumor volume was calculated by ½*(4*3.14/3)*(length/2)*(width/2)*height*1000, and the observation of the tumor volume and survival status was stopped if the mouse was defined as either death or paralysis or the tumor volume of the mouse exceeding 1000 mm^3.

CD4+ T cell = test: T cell immunity: CD4+ T cells in splenocytes of immunized mice (flow cytometry); conditions: splenocytes on day 28; i.m. on day 0 and day 14
Experimental: (§7) 12 BALB/c mice were randomly assigned into 4 groups (three mice per group), which were PBS group, WT1 group, WT1+IFN-alpha-based adjuvant group, and WT1+Squalene@HACH group.
(§8) PBS group: 50 μL of the phosphate buffered saline was injected intramuscularly into both of the left and right quadriceps of mice on day 0 and day 14.
(§9) WT1 group: 50 μL of the sodium citrate solution comprising 25 μL of WT1 protein was injected intramuscularly into both of the left and right quadriceps of mice on day 0 and day 14. […]
(§10) The splenocytes were isolated by the following procedure: the spleen was gently pressed with the plunger seal of a 5-mL syringe on a 70-μm cell strainer into a 50-mL tube and washed through a cell strainer with RPMI 1640 containing 10% (v/v) FBS. […] The cell solution was counted and diluted to the desired cell concentrations.
(§11) The cell suspensions obtained from the spleen of mice in each group were respectively mixed with a medium containing titrated fluorescent conjugates of monoclonal antibodies CD8a-Alexa Fluor 647 (BD Pharmingen), and CD4-FITC (Thermo Fisher). […] Finally, the stained cells were washed with staining buffer and analyzed by BD Accuri™ C6 flow cytometer.

CD8+ T cell = test: T cell immunity: CD8+ T cells in splenocytes of immunized mice (flow cytometry); conditions: splenocytes on day 28; i.m. on day 0 and day 14
Experimental: as §7, §8, §9, §10, §11

[1] = Condition suitable for self-assembly of Squalene@HACH particles (appearance of 28 compositions); assay type: physicochemical; conditions: by together forming squalene@HACH particles
Experimental: In this experiment, the condition suitable for self-assembly of Squalene@HACH particles was assessed and shown in a Ternary diagram.
There were 28 groups in this experiment, that is, the first to the 28th group. The preparation procedure of the compositions in each group was roughly the same as the experimental procedure of Composition comprising Squalene@HACH particles described in Experiment 1-1-4. The only differences were the weight of squalene, the weight of HACH, and the weight of sodium citrate solution (aqueous buffer solution).
Squalene@HACH particles in the compositions were detected and analyzed by dynamic light scattering, particle size analyzer, or transmission electron microscope. Moreover, please note that if the self-assembly of the Squalene@HACH particles occur in the composition, the composition would be a milk-like mixture solution (milk-like suspension).

[2] = individual mouse, i.m. on Day −14 and Day 0, 4T1 cells s.c. on Day 0

Molecule	Dendritic cells (CD11c+) recruitment, in words (dendritic cells (CD11c+))	Macrophages (CD11b+) recruitment, in words (macrophages (CD11b+))	also measured
CC(C)=CCC/C(C)=C/CC/C(C)=C/CC/C=C(\C)CC/C=C(\C)CCC=C(C)C [squalene]	lack the ability to recruit	lack the ability to recruit	–
WT1: WT1 protein, targeted antigen, given alone in sodium citrate solution	lacks the ability to recruit	lacks the ability to recruit	Survival Status on Day 53 (4T1 cells; [2]): Dead; The day of the Tumor Growth (4T1 cells; [2]): Day 18; also recorded: Day 21; also recorded: Day 25; Mice died on Day 53 (4T1 cells; of 6 mice per group): 6 mice; Mice in which tumor developed (4T1 cells; of 6 mice per group): 6 mice; Tumor was initially developed between (4T1 cells; range over tumor-bearing mice of the group): 18 to 25 days; CD4+ T cell (CD4+ T cell): 34.1%; CD8+ T cell (CD8+ T cell): 27.5%
hyaluronic acid-cholesterol conjugate [HACH]	–	–	Weight units of squalene coated by 1 weight unit of HACH [1]: 80 weight units
CCCCCCCCCCCCCCCCCCN [ODA, octadecan-1-amine]	lack the ability to recruit	lack the ability to recruit	–
CC(C)CCC[C@@H](C)[C@H]1CC[C@H]2[C@@H]3CC=C4C[C@@H](O)CC[C@]4(C)[C@H]3CC[C@]12C [cholesterol]	lack the ability to recruit	lack the ability to recruit	–

Source: patent publication US20260091103A1, “NOVEL COMPOSITIONS COMPRISING TERPENOID AND MACROMOLECULE, AND USES THEREOF” (Powin Biomedical Co., Ltd., priority 2022, published 2026)
